Measured values as given in PMC467089, “Click estradiol dimers with novel aromatic bridging units: synthesis and anticancer evaluation” (Journal of Enzyme Inhibition and Medicinal Chemistry, 2024).
Read-outs that look alike come from different tables or passages of the source.

How the values were obtained:
porcine brain tubulin = target: T1, porcine brain tubulin (Sus scrofa, UniProt P02550+P02554); assay: Tubulin polymerisation assay; format: biochemical; settings: 10 μmol/L, Vmax relative to DMSO
T1 construct: purchased Cytoskeleton, Denver, CO; host or cells: porcine brain (tissue-purified)
Description: Tubulin polymerisation assay kit (Cytoskeleton, Denver, CO) was used according to the manufacturer’s instructions. Polymerisation of porcine brain tubulin (>99% purity) was measured using an EnVision Multilabel Plate Reader (PerkinElmer, Waltham, MA) at 37 °C, in the presence of either 10 μmol/L test compounds or DMSO. Maximum polymerisation velocity (Vmax) was calculated from the polymerisation curves. Data visualisation was performed in OriginPro 2018b (b9.5.5.409) software (OriginLab Corporation, Northampton, MA)[10].

[1] = test system: A549 (lung adenocarcinoma); assay: MTS cytotoxicity assay, A549; format: cell-based, human; settings: Homo sapiens, read-out: IC50 cytotoxic activity A549
Description: (§1) The p53 deficient variant, HCT116p53−/−, was purchased from Horizon Discovery (Cambridge, UK). The daunorubicin-resistant CCRF-CEM cell line CEM-DNR bulk and paclitaxel-resistant K562-TAX sublines were developed in-house by exposing parental cell lines to escalating concentrations of daunorubicin and paclitaxel, respectively. Cells were maintained in the recommended culture medium (Sigma-Aldrich, St. Louis, MO) supplemented with 10% foetal calf serum, 100 U/mL penicillin, and 100 μg/mL streptomycin. The HUVEC line was obtained from PromoCell (Heidelberg, Germany). The cells were cultured in endothelial cell growth medium with SupplementMix for endothelial cells (PromoCell, Heidelberg, Germany). The incubation conditions were a humidified atmosphere of 95% air and 5% CO2 at 37 °C[10]. Cells were seeded in 384-well plates and after overnight incubation treated with compounds. All tested compounds were dissolved in 100% DMSO, and fourfold serial dilutions were performed using an Echo550 liquid handler (Labcyte, San Jose, CA). The experiments were performed in technical duplicates and three biological replicates. Cells were incubated with compounds for 72 h and thereafter 5 μL of MTS reagent was added to each well.

[2] = MTS cytotoxicity assay, MRC-5; format: cell-based; settings: human
Description: as §1

U2OS (osteosarcoma) = assay: MTS cytotoxicity assay, U2OS; format: cell-based, human; settings: Homo sapiens, U2OS, read-out: IC50 cytotoxic activity U2OS
Description: as §1

CCRF-CEM lymphoblasts [3] = assay: Cell cycle analysis by flow cytometry (propidium iodide); format: cell-based, human
Description: (§2) To further characterise the mode of action of studied compounds, we analysed the cell cycle profile of CCRF-CEM cells treated with compounds for 24 h. […] The compounds ED1–ED9 and ED12 induced arrest in G2/M phase of the cell cycle (Figure 2(A)). To differentiate between G2 block and mitotic arrest, we used phospho-histone H3 (Ser10) mitotic marker (Figure 2(B)). […] Generally, dimers induced a dose-dependent increase of sub G1 cell population with fragmented DNA except for ED2 and ED4 (Figure 2(C)). […] To assess the proliferation of treated cells, they were subjected to 5-bromo-2-deoxyuridine (BrDU) labelling. […] Analogously, changes in 5-bromouridine (BrU) incorporation were examined to monitor overall RNA synthesis.
(§3) Treated CCRF-CEM cells were harvested, washed with ice-cold phosphate-buffered saline (PBS), fixed in cold 70% ethanol and stored at −20 °C. Prior to analysis, fixed cells were permeabilised with 0.25% Triton X-100 in PBS for 15 min, blocked in 1% bovine serum, and incubated with anti-phospho-Histone H3 (Ser^10) antibody (Merck Millipore, Burlington, MA). Subsequently, the cells were treated with 50 μg/mL RNAse, stained with propidium iodide and analysed by FACSCalibur (Becton Dickinson, Franklin Lakes, NJ) flow cytometer at 488 nm. Cell cycle distribution (G1, S, and G2/M) was analysed using ModFitLT software (Verity, Topsham, ME), and reflects only viable population prior to the fixing procedure. Particles with lower propidium iodide content than G1 phase cells were classified as non-viable cells with fragmented DNA. Flow cytometry data visualisation was performed using OriginPro 2018b (b9.5.5.409) software (OriginLab Corporation, Northampton, MA)[10].

CCRF-CEM lymphoblasts [4] = assay: Phospho-histone H3 (Ser10) mitotic marker, flow cytometry; format: cell-based, human
Description: as §2, §3

[5] = test system: CCRF-CEM (childhood T-cell acute lymphoblastic leukaemia); assay: MTS cytotoxicity assay, CCRF-CEM; format: cell-based; settings: Homo sapiens, read-out: IC50 cytotoxic activity CCRF-CEM
Description: as §1

[6] = test system: HCT116 (colorectal adenocarcinoma); assay: MTS cytotoxicity assay, HCT116; format: cell-based; settings: Homo sapiens, read-out: IC50 cytotoxic activity HCT116
Description: as §1

[7] = test system: K562 (chronic myelogenous leukaemia); assay: MTS cytotoxicity assay, K562; format: cell-based; settings: Homo sapiens, read-out: IC50 cytotoxic activity K562
Description: as §1

[8] = test system: CEM-DNR (daunorubicin resistant variant of CCRF-CEM); assay: MTS cytotoxicity assay, CEM-DNR; format: cell-based, human; settings: Homo sapiens, CEM-DNR, read-out: IC50 cytotoxic activity CEM-DNR
Description: as §1

[9] = MTS cytotoxicity assay, BJ; format: cell-based; settings: human
Description: as §1

CCRF-CEM lymphoblasts [10] = assay: BrU incorporation analysis (RNA synthesis); format: cell-based, human
Description: as §2
Prior to the trypsinisation, cells were treated with 1 mM BrU for 30 min. Subsequently, the cells were fixed in 1% paraformaldehyde with 0.05% of NP-40 for 15 min at RT and stored overnight at 4 °C. Fixed cells were washed with 1% glycine in PBS and stained with primary anti-BrdU antibody clone MoBu-1 crossreacting with BrU (Exbio, Vestec, Czech Republic) for 30 min at RT, washed with PBS and labelled with secondary anti-mouse-FITC antibody (Sigma-Aldrich, St. Louis, MO). Following 1-h incubation in 1% paraformaldehyde containing 0.05% NP-40, cells were stained with propidium iodide (0.1 mg/mL) and treated with RNase A (0.5 mg/mL) for 1 h at RT. The percentage of BrU positive cells was quantified using CellQuest software.

[11] = MTS cytotoxicity assay, HUVEC; format: cell-based; settings: human
Description: as §1

[12] = test system: K562-TAX (paclitaxel-resistant variant of K562); assay: MTS cytotoxicity assay, K562-TAX; format: cell-based, human; settings: for IC50: Homo sapiens, K562-Tax, read-out: IC50 cytotoxic activity K562-TAX
Description: as §1

[13] = test system: HCT116p53−/− (p53 gene null variant of HCT116); assay: MTS cytotoxicity assay, HCT116p53−/−; format: cell-based; settings: Homo sapiens, read-out: IC50 cytotoxic activity HCT116p53-
Description: as §1

CCRF-CEM lymphoblasts [14] = assay: BrDU incorporation analysis (DNA synthesis); format: cell-based, human
Description: as §2
Thirty minutes before harvesting, cells were pulse-labelled with 10 μM BrDU. After overnight fixation in ice-cold 70% ethanol, cells were resuspended in 2 M HCl for 30 min at room temperature (RT), then washed with 0.1 M Na2B4O7 and blocked with PBS containing 0.5% Tween-20 and 1% BSA. BrDU incorporation was analysed using anti-BrdU antibody clone MoBu-1 (Exbio, Vestec, Czech Republic) and a secondary anti-mouse-FITC antibody (Sigma-Aldrich, St. Louis, MO). Cells were washed with PBS and stained with 0.1 mg/mL propidium iodide and 0.5 mg/mL RNase A for 1 h at RT and analysed by flow cytometry using a 488 nm single beam laser (FACSCalibur, Becton Dickinson, Franklin Lakes, NJ). The percentage of cells with incorporated BrDU was analysed using CellQuest software.

[15] = A549, MTS assay, 72-h incubation, mean ± SD of 3 independent experiments
[16] = MRC-5 cells (non-tumour fibroblasts), MTS assay, 72-h incubation, mean ± SD of 3 independent experiments, read-out: IC50 cytotoxic activity MRC-5
[17] = MTS assay, 72-h incubation, mean ± SD of 3 independent experiments
[18] = HCT-116, MTS assay, 72-h incubation, mean ± SD of 3 independent experiments
[19] = K562, MTS assay, 72-h incubation, mean ± SD of 3 independent experiments
[20] = BJ cells (non-tumour skin fibroblasts), MTS assay, 72-h incubation, mean ± SD of 3 independent experiments, read-out: IC50 cytotoxic activity BJ

T1 sequence (P02550 whole entry): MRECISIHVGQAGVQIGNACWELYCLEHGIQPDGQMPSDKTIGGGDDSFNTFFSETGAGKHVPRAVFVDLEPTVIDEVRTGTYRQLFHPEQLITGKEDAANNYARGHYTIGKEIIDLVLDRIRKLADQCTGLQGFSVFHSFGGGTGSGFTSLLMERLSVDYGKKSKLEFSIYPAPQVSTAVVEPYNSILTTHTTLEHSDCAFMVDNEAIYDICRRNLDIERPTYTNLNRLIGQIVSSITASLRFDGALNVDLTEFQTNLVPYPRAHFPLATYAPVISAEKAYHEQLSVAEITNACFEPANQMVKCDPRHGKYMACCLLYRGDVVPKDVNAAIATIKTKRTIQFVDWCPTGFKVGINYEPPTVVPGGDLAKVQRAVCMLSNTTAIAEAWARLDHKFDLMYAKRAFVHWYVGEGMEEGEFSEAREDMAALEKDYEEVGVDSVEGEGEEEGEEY
T1 sequence (P02554 whole entry): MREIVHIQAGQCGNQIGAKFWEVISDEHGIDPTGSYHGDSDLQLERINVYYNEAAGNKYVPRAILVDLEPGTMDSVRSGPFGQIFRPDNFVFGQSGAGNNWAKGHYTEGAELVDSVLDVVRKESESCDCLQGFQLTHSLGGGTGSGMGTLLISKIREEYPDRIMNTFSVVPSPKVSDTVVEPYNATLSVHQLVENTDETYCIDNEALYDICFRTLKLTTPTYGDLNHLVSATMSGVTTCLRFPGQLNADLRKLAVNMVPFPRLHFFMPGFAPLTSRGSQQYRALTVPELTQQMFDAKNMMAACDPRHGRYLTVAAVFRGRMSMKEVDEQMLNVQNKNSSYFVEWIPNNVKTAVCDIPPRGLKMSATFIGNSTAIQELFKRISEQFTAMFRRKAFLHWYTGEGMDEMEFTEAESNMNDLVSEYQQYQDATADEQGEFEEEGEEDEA

SMILES	inhibitory activity against tubulin polymerisation (in words) (porcine brain tubulin)	<G1 (sub-G1, fragmented DNA), % of positive cells (CCRF-CEM lymphoblasts [3]; 1×IC50, 24 h)	>G2/M (polyploidy), % of positive cells (CCRF-CEM lymphoblasts [3]; 1×IC50, 24 h)	G0/G1, % of positive cells (CCRF-CEM lymphoblasts [3]; 1×IC50, 24 h)	G2/M, % of positive cells (CCRF-CEM lymphoblasts [3]; 1×IC50, 24 h)	S, % of positive cells (CCRF-CEM lymphoblasts [3]; 1×IC50, 24 h)	<G1 (sub-G1, fragmented DNA), % of positive cells (CCRF-CEM lymphoblasts [3]; 5×IC50, 24 h)	>G2/M (polyploidy), % of positive cells (CCRF-CEM lymphoblasts [3]; 5×IC50, 24 h)	G0/G1, % of positive cells (CCRF-CEM lymphoblasts [3]; 5×IC50, 24 h)	G2/M, % of positive cells (CCRF-CEM lymphoblasts [3]; 5×IC50, 24 h)	S, % of positive cells (CCRF-CEM lymphoblasts [3]; 5×IC50, 24 h)	pH3Ser10, % of positive cells (CCRF-CEM lymphoblasts [4]; 1×IC50, 24 h)	pH3Ser10, % of positive cells (CCRF-CEM lymphoblasts [4]; 5×IC50, 24 h)	BrU, % of positive cells (CCRF-CEM lymphoblasts [10]; 1×IC50, 24 h)	BrU, % of positive cells (CCRF-CEM lymphoblasts [10]; 5×IC50, 24 h)	BrDU, % of positive cells (CCRF-CEM lymphoblasts [14]; 1×IC50, 24 h)	BrDU, % of positive cells (CCRF-CEM lymphoblasts [14]; 5×IC50, 24 h)	IC50 [1, 15]	IC50 at 72 h [2, 16]	IC50 (U2OS (osteosarcoma); [17])	further results
C[C@]12CC[C@@H]3c4ccc(O)cc4CC[C@H]3[C@@H]1CC[C@@]2(O)c1cn(Cc2cccc(Cn3cc([C@]4(O)CC[C@H]5[C@@H]6CCc7cc(O)ccc7[C@H]6CC[C@@]54C)nn3)c2)nn1 [ED1, (17β,17′β)-17,17′-[Benzene-1,3-diylbis(methanediyl-1H-1,2,3-triazole-1,4-diyl)]bisestra-1,3,5(10)-triene-3,17-diol]	comparable or better inhibitory activity	55.53%	10.7%	0.28%	74.70%	25.01%	64.75%	17.65%	0.27%	75.07%	24.67%	61.09%	64.45%	48.16%	31.42%	38.15%	6.70%				IC50 ([1]; A549, 72 h): 1680 ± 200 nM; IC50 at 72 h [2]: > 50000 nM; IC50 (U2OS (osteosarcoma); 72 h): 1950 ± 440 nM; IC50 ([5]; 72 h): 1600 ± 270 nM; IC50 ([6]; HCT-116, 72 h): 1410 ± 300 nM; IC50 ([7]; K562, 72 h): 1630 ± 120 nM; IC50 ([8]; 72 h): > 50000 nM; IC50 at 72 h [9]: > 50000 nM; IC50 at 72 h [11]: 13.5 ± 2 nM; IC50 cytotoxic activity K562-TAX [12]: sensitive; IC50 ([12]; 72 h): 1580 ± 160 nM; IC50 ([13]; HCT-116, 72 h): 1500 ± 320 nM
Cc1cc(C)c(Cn2cc([C@]3(O)CC[C@H]4[C@@H]5CCc6cc(O)ccc6[C@H]5CC[C@@]43C)nn2)c(C)c1Cn1cc([C@]2(O)CC[C@H]3[C@@H]4CCc5cc(O)ccc5[C@H]4CC[C@@]32C)nn1 [ED10, 17,17′-[(2,4,6-Trimethyl-1,3-phenylene)bis(methylene-1H-1,2,3-triazole-1,4-diyl)]di[estra-1,3,5(10)-triene-3,17β-diol]]	inactive																				
C[C@]12CC[C@@H]3c4ccc(O)cc4CC[C@H]3[C@@H]1CC[C@@]2(O)c1cn(Cc2c(Cl)c(Cl)c(Cl)c(Cn3cc([C@]4(O)CC[C@H]5[C@@H]6CCc7cc(O)ccc7[C@H]6CC[C@@]54C)nn3)c2Cl)nn1 [ED11, 17,17′-[(2,4,5,6-Tetrachloro-1,3-phenylene)bis(methylene-1H-1,2,3-triazole-1,4-diyl)]di[estra-1,3,5(10)-triene-3,17β-diol]]	inactive																				
C#C[C@]1(O)CC[C@H]2[C@@H]3CCc4cc(O)ccc4[C@H]3CC[C@@]21C [EE, 17α-ethinylestradiol, reference compound]																		31500 ± 4160 nM	> 50000 nM	22400 ± 5650 nM	IC50 [6, 18]: 30000 ± 6890 nM; IC50 [7, 19]: 8720 ± 2170 nM; IC50 [8, 17]: 23000 ± 4700 nM; IC50 at 72 h [9, 20]: > 50000 nM; IC50 [12, 17]: 15600 ± 6250 nM; IC50 [13, 18]: 33600 ± 11900 nM
COc1cc2c(cc1O)CC[C@@H]1[C@@H]2CC[C@]2(C)[C@@H](O)CC[C@@H]12 [ME, 2-methoxyestradiol, reference compound]		23.97%	6.2%	31.50%	28.85%	39.65%	65.32%	10.4%	1.19%	84.03%	14.77%	17.74%	67.40%	23.60%	46.10%	9.31%	9.49%	2260 ± 150 nM	> 50000 nM	2130 ± 300 nM	IC50 [5, 17]: 1610 ± 97 nM; IC50 [6, 18]: 1580 ± 250 nM; IC50 [7, 19]: 1430 ± 390 nM; IC50 [8, 17]: 1610 ± 200 nM; IC50 at 72 h [9, 20]: > 50000 nM; IC50 at 72 h ([11]; HUVEC cells (umbilical vein endothelial cells), MTS assay, 72-h incubation, mean ± SD of 3 independent experiments, read-out: IC50 cytotoxic activity HUVEC): 1070 ± 180 nM; IC50 [12, 17]: 1320 ± 200 nM; IC50 [13, 18]: 1990 ± 410 nM
